This note sets out measurements from patent publication US20210322452A1, “COGNITIVE FUNCTION IMPROVING COMPOSITION COMPRISING NOVEL POST FERMENTED TEA-DERIVED KAEMPFEROL-BASED COMPOUND” (AMOREPACIFIC CORPORATION, priority 2016, published 2021).

Data set [1] has as its system DNMT1 (DNA (cytosine-5)-methyltransferase 1). The data set can be described thus: Expression level of intracellular DNMT1 in SH-SY5Y cells (real-time quantitative PCR). The format is cell-based. The settings on record: 24 hours, mRNA vs GAPDH, untreated = 100. The procedure: (§1) Specifically, SH-SY5Y (neuroblastoma, Korean Cell Line Bank) cell line was seeded in a 6-well plate (FALCON) at 2×10^6 cells per well, cultured in an incubator containing 5% CO2 at 37° C. for 24 hours, then treated with 10 μg/ml of GCG, 10 μM of EGCG, 10 μg/ml of the existing green tea extract (GTE), 10 μg/ml of the novel substance 33, and 1 μM of 5-Aza-2′deoxycytidine (5-Aza, Sigma-aldrich) as a positive control group, and further cultured for 24 hours. Thereafter, the medium was entirely removed therefrom, and RNA was extracted therefrom using an RNA extraction kit (RNeasy mini kit, Quiagen). The extracted mRNA was quantitated using an ultraviolet detector (TECAN), and then 1 μg of mRNA was synthesized into a complementary DNA using a kit (SuperScript VILO cDNA Synthesis Kit, Thermofisher Scientific). Approximately 1 μg of the complementary DNA was taken and subjected to the real-time quantitative chain reaction using Taqman probe (Life technology) and Quantitect Probe PCR Kit (Quiagen). The expression levels of BDNF and DNMT1 were thus confirmed. At this time, the housekeeping gene, GAPDH, was used as the reference mRNA.

Data set [2] has as its system skin. The data set can be described thus: Human repeated insult patch tests (HRIPT), cumulative skin irritation. The format is in vivo. The arrangement: key to skin reactivity (ICDRG criteria): −: Negative (no reaction); ±: Suspicious or mild erythema and the like; +: Weak reaction (not accompanied by small vesicula), erythema, papule; ++: Moderate reaction (with small vesicula), erythema, papule, vesicula; +++: Strong reaction, bulla reaction. As to conditions: for Number of subjects showed ±, +, or ++ reactivity, 1st time: 1st patch; for Number of subjects showed ±, +, or ++ reactivity, 1st time / Number of subjects showed ±, +, or ++ reactivity, 2nd time / Number of subjects showed ±, +, or ++ reactivity, 3rd time / Number of subjects showed ±, +, or ++ reactivity, 4th time / Number of subjects showed ±, +, or ++ reactivity, 5th time / Number of subjects showed ±, +, or ++ reactivity, 6th time / Number of subjects showed ±, +, or ++ reactivity, 7 th time / Number of subjects showed ±, +, or ++ reactivity, 8 th time / Number of subjects showed ±, +, or ++ reactivity, 9th time: three lines per group (±, +, ++; lines not labelled); for Number of subjects showed ±, +, or ++ reactivity, 2nd time: 2nd patch; for Number of subjects showed ±, +, or ++ reactivity, 3rd time: 3rd patch; for Number of subjects showed ±, +, or ++ reactivity, 4th time: 4th patch; for Number of subjects showed ±, +, or ++ reactivity, 5th time: 5th patch; for Number of subjects showed ±, +, or ++ reactivity, 6th time: 6th patch; for Number of subjects showed ±, +, or ++ reactivity, 7 th time: 7th patch; for Number of subjects showed ±, +, or ++ reactivity, 8 th time: 8th patch; for Number of subjects showed ±, +, or ++ reactivity, 9th time: 9th patch; for Average reactivity: safe when less than 3. The procedure:
Human repeated insult patch tests (HRIPT) were conducted to determine the cumulative skin irritation by kaempferol3-O-[2-O″-(E)-p-coumaroyl][beta-D-glucopyranosyl-(1→3)-O-alpha-L-rhamnopyranosyl-(1→6)-O-beta-D-glucopyranoside] and to calculate the concentration range in which kaempferol3-O-[2-O″-(E)-p-coumaroyl][beta-D-glucopyranosyl-(1→3)-O-alpha-L-rhamnopyranosyl-(1→6)-O-beta-D-glucopyranoside] can be used on the skin.
Specifically, 15 healthy adult subjects were randomly selected, the test compositions (compositions for skin containing an emulsifier, a stabilizer, purified water, and the like in addition to the compound) containing the compound at 0.5 wt %, 1 wt %, and 3 wt % were dropped by 20 μl per chamber (IQ chamber, Epitest Ltd, Finland), and the patch was applied to the right side of the upper back of the subject and then replaced with new one after 24 hours. The skin reaction was examined before and after the patch test while the patch test was conducted three times a week and thus nine times for three weeks in total in this manner, the skin reaction was observed until the 48th hour after removal of the final patch, and the average reactivity was determined.
The skin reaction was judged according to the criteria of the International Contact Dermatitis Research Group (ICDRG). In the above table, “Novel substance 33” denotes kaempferol3-O-[2-O″-(E)-p-coumaroyl][beta-D-glucopyranosyl-(1→3)-O-alpha-L-rhamnopyranosyl-(1→6)-O-beta-D-glucopyranoside].

Data set [3] relates to BDNF (brain-derived neurotrophic factor). The data set can be described thus: Expression level of intracellular BDNF in SH-SY5Y cells (real-time quantitative PCR). The format is cell-based. As to conditions: 24 hours, mRNA vs GAPDH, untreated = 100. Here is the method: as §1
For data set [4], the target named is T1, beta amyloid (Aβ1-42) (Homo sapiens, UniProt P05067).
T1 construct: beta amyloid (Aβ1-42, AnaSpec Inc., USA) was obtained; purchased AnaSpec Inc., USA
T1 sequence (P05067 672-713 limits assumed): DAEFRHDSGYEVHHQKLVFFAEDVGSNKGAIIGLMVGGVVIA
The data set can be described thus: Inhibition of beta amyloid aggregation, fluorescence analysis (ThioflavinT assay). As to conditions: compound 10 μM; for Increased RFU (amount of aggregated beta amyloid): Aβ1-42 0.1 mg/ml, thioflavinT, 37° C., 150 minutes; for Increased RFU (% of Pos. Cont.): Pos. Cont. (only beta amyloid, no compound) = 100%; for inhibition at 10 µM: aggregation in positive control group taken as 100%, read-out: inhibition of beta amyloid aggregation compared with the positive control group. The format is biochemical. The procedure:
The effect of kaempferol3-O-[2-O″-(E)-p-coumaroyl][beta-D-glucopyranosyl-(1→3)-O-alpha-L-rhamnopyranosyl-(1→6)-O-beta-D-glucopyranoside] on inhibition of beta amyloid aggregation was confirmed by the fluorescence analysis (ThioflavinT assay).
Specifically, beta amyloid (Aβ1-42, AnaSpec Inc., USA) was obtained and used at a concentration of 0.1 mg/ml and stored at −80° C. before use. Morin (20 μM), phenol red (20 μM), and kaempferol3-O-[2-O″-(E)-p-coumaroyl][beta-D-glucopyranosyl-(1→3)-O-alpha-L-rhamnopyranosyl-(1→6)-O-beta-D-glucopyranoside] (1 mg/ml) were respectively diluted with DMSO so as to be adjusted to the concentrations.
In order to specify the degree of inhibition of Aβ1-42 aggregation, each of the compounds prepared at the above concentrations was diluted with 50 μL of 0.01 M sodium phosphate buffer solution to have a concentration of 10 μM, then 40 μL of 0.1 mg/ml of Aβ1-42 was added thereto, and then 10 μl of 2 mM thioflavinT was added thereto, and fluorescence was measured using a fluorescence spectrometer (RF-5300PC, SHIMADZU CORPORATION, Japan) at 37° C. for 150 minutes at intervals of 5 minutes.

`CC1OC(OCC2OC(Oc3c(-c4ccc(O)cc4)oc4cc(O)cc(O)c4c3=O)C(OC(=O)/C=C/c3ccc(O)cc3)C(O)C2O)C(O)C(OC2OC(CO)C(O)C(O)C2O)C1O` [Novel substance 33, kaempferol3-O-[2-O″-(E)-p-coumaroyl][beta-D-glucopyranosyl-(1→3)-O-alpha-L-rhamnopyranosyl-(1→6)-O-beta-D-glucopyranoside]]: the “Relative expression level of DNMT1” value in data set [1] (10 μg/ml) is listed as 78%. Further, in data set [2] (0.5 wt %), the “Number of subjects showed ±, +, or ++ reactivity, 1st time” value (“Number of subjects showed ± … 1st time” below) is given as 0 persons; the “Number of subjects showed ±, +, or ++ reactivity, 2nd time” value (from here on “Number of subjects showed ± … 2nd time”) came out at 0 persons; the “Number of subjects showed ±, +, or ++ reactivity, 3rd time” value (shortened to “Number of subjects showed ± … 3rd time”) came out at 0 persons; the “Number of subjects showed ±, +, or ++ reactivity, 4th time” value (“Number of subjects showed ± … 4th time” below) is 0 persons. In addition, in data set [2] (0.5 wt %), the “Number of subjects showed ±, +, or ++ reactivity, 5th time” value (from here on “Number of subjects showed ± … 5th time”) is 0 persons; the “Number of subjects showed ±, +, or ++ reactivity, 6th time” value (shortened to “Number of subjects showed ± … 6th time”) turned out to be 0 persons; the “Number of subjects showed ±, +, or ++ reactivity, 7 th time” value (“Number of subjects showed ± … 7 th time” below) was found to be 0 persons; the “Number of subjects showed ±, +, or ++ reactivity, 8 th time” value (shortened to “Number of subjects showed ± … 8 th time”) came out at 0 persons. In data set [2] (0.5 wt %), the “Number of subjects showed ±, +, or ++ reactivity, 9th time” value (“Number of subjects showed ± … 9th time” for short) was found to be 0 persons and the Average reactivity was 0. In data set [2] (1 wt %), the “Number of subjects showed ± … 1st time” value was found to be 0 persons; the “Number of subjects showed ± … 2nd time” value is 0 persons; the “Number of subjects showed ± … 3rd time” value amounted to 0 persons; the “Number of subjects showed ± … 4th time” value was 0 persons. For the same compound, in data set [2] (1 wt %), the “Number of subjects showed ± … 5th time” value is 0 persons; the “Number of subjects showed ± … 6th time” value is 0 persons; the “Number of subjects showed ± … 7 th time” value is 0 persons; the “Number of subjects showed ± … 8 th time” value is listed as 0 persons. Further, in data set [2] (1 wt %), the “Number of subjects showed ± … 9th time” value was 0 persons and the Average reactivity was found to be 0. Further, in data set [2] (3 wt %), the “Number of subjects showed ± … 1st time” value was determined as 0 persons; the “Number of subjects showed ± … 2nd time” value turned out to be 0 persons; the “Number of subjects showed ± … 3rd time” value stood at 0 persons; the “Number of subjects showed ± … 4th time” value was found to be 0 persons. For the same compound, in data set [2] (3 wt %), the “Number of subjects showed ± … 5th time” value came to 0 persons; the “Number of subjects showed ± … 6th time” value stood at 0 persons; the “Number of subjects showed ± … 7 th time” value is listed as 0 persons; the “Number of subjects showed ± … 8 th time” value worked out at 0 persons. In data set [2] (3 wt %), the “Number of subjects showed ± … 9th time” value is 0 persons and the Average reactivity was 0. The “skin reactivity (ICDRG criteria)” value in data set [2] (all the content ranges (0.5, 1, 3 wt %), 15 subjects, 9 patches in 3 weeks) was “−”. For the same compound, the “Relative expression level of BDNF” value in data set [3] (10 μg/ml) was 128%. In data set [4], the “Increased RFU (amount of aggregated beta amyloid)” value turned out to be 11235 RFU, the “Increased RFU (% of Pos. Cont.)” value is 77.0% and the inhibition at 10 µM came out at 23%.
On to `Nc1ncn([C@H]2C[C@H](O)[C@@H](CO)O2)c(=O)n1` [5-Aza-2′deoxycytidine, reference compound], for which the “Relative expression level of DNMT1” value in data set [1] (1 μM) came to 65%. In addition, in data set [3] (1 μM), the “Relative expression level of BDNF” value amounted to 149%.
For `O=S1(=O)OC(c2ccc(O)cc2)(c2ccc(O)cc2)c2ccccc21` [Phenol Red], in data set [4], the “Increased RFU (% of Pos. Cont.)” value stood at 93.6% and the inhibition at 10 µM amounted to 6.4%.
As for `O=c1c(O)c(-c2ccc(O)cc2O)oc2cc(O)cc(O)c12` [Morin], in data set [4], the “Increased RFU (amount of aggregated beta amyloid)” value came to 11471 RFU, the “Increased RFU (% of Pos. Cont.)” value is recorded as 78.6% and the inhibition at 10 µM came to 21.4%.

The term inhibition denotes the drop in the measured response relative to a control, in per cent.
